Reference: ChEMBL document CHEMBL4800729 (2021)

How the values were obtained:
[1] = biological target: 3-hydroxy-3-methylglutaryl-coenzyme A reductase (Homo sapiens) (UniProt P04035); assay: Inhibition of HMG-CoA Reductase at compound concentration of 10.0 uM in the Eurofins-Panlabs enzyme assay (Eurofins_assay_124010); parameters: substrate with concentration; conditions: Compound concentration 10.0 uM
[2] = biological target: Tyrosine-protein kinase ABL2 (Homo sapiens) (UniProt P42684); assay: Arg(h) Millipore kinase panel; conditions: Compound concentration 1.0 uM
[3] = biological target: Casein kinase I isoform gamma-1 (Homo sapiens) (UniProt Q9HCP0); assay: CK1gamma1(h) Millipore kinase panel; conditions: Compound concentration 1.0 uM
[4] = biological target: Dual specificity protein kinase CLK3 (Homo sapiens) (UniProt P49761); assay: CLK3(h) Millipore kinase panel; conditions: Compound concentration 1.0 uM
[5] = biological target: Dual specificity protein kinase CLK4 (Homo sapiens) (UniProt Q9HAZ1); assay: CLK4(h) Millipore kinase panel; conditions: Compound concentration 1.0 uM
[6] = biological target: Tyrosine-protein kinase CSK (Homo sapiens) (UniProt P41240); assay: CSK(h) Millipore kinase panel; conditions: Compound concentration 1.0 uM
[7] = biological target: Dual specificity tyrosine-phosphorylation-regulated kinase 1A (Homo sapiens) (UniProt Q13627); assay: DYRK1A(h) Millipore kinase panel; conditions: Compound concentration 1.0 uM
[8] = biological target: Dual specificity tyrosine-phosphorylation-regulated kinase 3 (Homo sapiens) (UniProt O43781); assay: DYRK3(h) Millipore kinase panel; conditions: Compound concentration 1.0 uM
[9] = biological target: Ephrin type-A receptor 1 (Homo sapiens) (UniProt P21709); assay: EphA1(h) Millipore kinase panel; conditions: Compound concentration 1.0 uM
[10] = biological target: Ephrin type-B receptor 4 (Homo sapiens) (UniProt P54760); assay: EphB4(h) Millipore kinase panel; conditions: Compound concentration 1.0 uM
[11] = biological target: Glycogen synthase kinase-3 beta (Homo sapiens) (UniProt P49841); assay: GSK3beta(h) Millipore kinase panel; conditions: Compound concentration 1.0 uM
[12] = biological target: Homeodomain-interacting protein kinase 2 (Homo sapiens) (UniProt Q9H2X6); assay: HIPK2(h) Millipore kinase panel; conditions: Compound concentration 1.0 uM
[13] = biological target: Homeodomain-interacting protein kinase 3 (Homo sapiens) (UniProt Q9H422); assay: HIPK3(h) Millipore kinase panel; conditions: Compound concentration 1.0 uM
[14] = biological target: Insulin-like growth factor 1 receptor (Homo sapiens) (UniProt P08069); assay: IGF-1R(h), activated Millipore kinase panel; conditions: Compound concentration 1.0 uM
[15] = biological target: Serine/threonine-protein kinase/endoribonuclease IRE1 (Homo sapiens) (UniProt O75460); assay: IRE1(h) Millipore kinase panel; conditions: Compound concentration 1.0 uM
[16] = biological target: Vascular endothelial growth factor receptor 2 (Homo sapiens) (UniProt P35968); assay: KDR(h) Millipore kinase panel; conditions: Compound concentration 1.0 uM
[17] = biological target: Mitogen-activated protein kinase kinase kinase 2 (Homo sapiens) (UniProt Q9Y2U5); assay: MEKK2(h) Millipore kinase panel; conditions: Compound concentration 1.0 uM
[18] = biological target: Misshapen-like kinase 1 (Homo sapiens) (UniProt Q8N4C8); assay: MINK(h) Millipore kinase panel; conditions: Compound concentration 1.0 uM
[19] = biological target: Mitogen-activated protein kinase kinase kinase 10 (Homo sapiens) (UniProt Q02779); assay: MLK2(h) Millipore kinase panel; conditions: Compound concentration 1.0 uM
[20] = biological target: Serine/threonine-protein kinase MRCK alpha (Homo sapiens) (UniProt Q5VT25); assay: MRCKalpha(h) Millipore kinase panel; conditions: Compound concentration 1.0 uM
[21] = biological target: Ribosomal protein S6 kinase alpha-4 (Homo sapiens) (UniProt O75676); assay: MSK2(h) Millipore kinase panel; conditions: Compound concentration 1.0 uM
[22] = biological target: Serine/threonine-protein kinase 24 (Homo sapiens) (UniProt Q9Y6E0); assay: MST3(h) Millipore kinase panel; conditions: Compound concentration 1.0 uM
[23] = biological target: Serine/threonine-protein kinase Nek9 (Homo sapiens) (UniProt Q8TD19); assay: NEK9(h) Millipore kinase panel; conditions: Compound concentration 1.0 uM
[24] = biological target: Serine/threonine-protein kinase NLK (Homo sapiens) (UniProt Q9UBE8); assay: NLK(h) Millipore kinase panel; conditions: Compound concentration 1.0 uM
[25] = biological target: RAC-beta serine/threonine-protein kinase (Homo sapiens) (UniProt P31751); assay: PKBbeta(h) Millipore kinase panel; conditions: Compound concentration 1.0 uM
[26] = biological target: Serine/threonine-protein kinase PLK3 (Homo sapiens) (UniProt Q9H4B4); assay: Plk3(h) Millipore kinase panel; conditions: Compound concentration 1.0 uM
[27] = biological target: Serine/threonine-protein kinase PLK4 (Homo sapiens) (UniProt O00444); assay: Plk4(h) Millipore kinase panel; conditions: Compound concentration 1.0 uM
[28] = biological target: Serine/threonine-protein kinase SBK1 (Homo sapiens) (UniProt Q52WX2); assay: SBK1(h) Millipore kinase panel; conditions: Compound concentration 1.0 uM
[29] = biological target: SRSF protein kinase 2 (Homo sapiens) (UniProt P78362); assay: SRPK2(h) Millipore kinase panel; conditions: Compound concentration 1.0 uM
[30] = biological target: NT-3 growth factor receptor (Homo sapiens) (UniProt Q16288); assay: TrkC(h) Millipore kinase panel; conditions: Compound concentration 1.0 uM
[31] = biological target: Wee1-like protein kinase 2 (Homo sapiens) (UniProt P0C1S8); assay: Wee1B(h) Millipore kinase panel; conditions: Compound concentration 1.0 uM
[32] = biological target: CDK12/Cyclin K (Homo sapiens) (UniProt O75909+Q9NYV4); assay: CDK12/cyclinK(h) Millipore kinase panel; format: protein-complex assay; conditions: Compound concentration 1.0 uM
D(1A) dopamine receptor [33] = biological target: T1, D(1A) dopamine receptor (Homo sapiens, UniProt P21728); conditions: Compound concentration 10.0 uM
[34] = biological target: D(2) dopamine receptor (Homo sapiens) (UniProt P14416); conditions: Compound concentration 10.0 uM
[35] = biological target: D(4) dopamine receptor (Homo sapiens) (UniProt P21917); conditions: Compound concentration 10.0 uM
[36] = biological target: Delta-type opioid receptor (Homo sapiens) (UniProt P41143); conditions: Compound concentration 10.0 uM
[37] = biological target: Alpha-2A adrenergic receptor (Homo sapiens) (UniProt P08913); conditions: Compound concentration 10.0 uM
[38] = biological target: Beta-1 adrenergic receptor (Homo sapiens) (UniProt P08588); conditions: Compound concentration 10.0 uM
[39] = biological target: Adenosine receptor A1 (Homo sapiens) (UniProt P30542); conditions: Compound concentration 10.0 uM
D(1A) dopamine receptor [40] = biological target: T1, D(1A) dopamine receptor; conditions: Compound concentration 10.0 uM; remark: listed apart in the source
[41] = biological target: T2, Alpha-2B adrenergic receptor (Homo sapiens) (UniProt P18089); conditions: Compound concentration 10.0 uM
T2 sequence (whole entry): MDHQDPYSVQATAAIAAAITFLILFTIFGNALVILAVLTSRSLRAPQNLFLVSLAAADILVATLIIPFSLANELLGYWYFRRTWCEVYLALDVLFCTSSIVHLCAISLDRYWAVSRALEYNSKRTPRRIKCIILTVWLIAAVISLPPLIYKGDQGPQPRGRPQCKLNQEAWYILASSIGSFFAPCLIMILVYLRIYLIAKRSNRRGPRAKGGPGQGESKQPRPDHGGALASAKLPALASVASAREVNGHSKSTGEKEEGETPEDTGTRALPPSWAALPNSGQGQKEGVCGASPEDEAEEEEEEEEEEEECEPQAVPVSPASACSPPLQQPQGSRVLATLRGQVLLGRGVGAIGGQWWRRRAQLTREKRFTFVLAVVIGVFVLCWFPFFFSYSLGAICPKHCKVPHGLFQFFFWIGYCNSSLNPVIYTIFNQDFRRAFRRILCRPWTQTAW

[42] = biological target: Growth hormone secretagogue receptor type 1 (Homo sapiens) (UniProt Q92847); conditions: Compound concentration 10.0 uM

Measured: inhibition

T1 sequence (P21728 whole entry): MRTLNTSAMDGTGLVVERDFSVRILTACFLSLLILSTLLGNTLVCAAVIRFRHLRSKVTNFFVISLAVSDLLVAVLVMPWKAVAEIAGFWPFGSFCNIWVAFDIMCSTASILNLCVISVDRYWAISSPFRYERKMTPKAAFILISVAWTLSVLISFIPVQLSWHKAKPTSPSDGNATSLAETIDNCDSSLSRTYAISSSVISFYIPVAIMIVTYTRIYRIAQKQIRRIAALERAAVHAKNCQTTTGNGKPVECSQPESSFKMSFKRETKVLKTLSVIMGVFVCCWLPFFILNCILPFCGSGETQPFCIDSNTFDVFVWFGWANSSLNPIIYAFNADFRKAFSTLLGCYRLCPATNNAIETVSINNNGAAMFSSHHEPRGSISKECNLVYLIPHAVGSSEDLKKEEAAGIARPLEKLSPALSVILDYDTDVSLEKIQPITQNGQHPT
Sequence of Serine/threonine-protein kinase MRCK alpha (Homo sapiens) (Q5VT25 whole entry): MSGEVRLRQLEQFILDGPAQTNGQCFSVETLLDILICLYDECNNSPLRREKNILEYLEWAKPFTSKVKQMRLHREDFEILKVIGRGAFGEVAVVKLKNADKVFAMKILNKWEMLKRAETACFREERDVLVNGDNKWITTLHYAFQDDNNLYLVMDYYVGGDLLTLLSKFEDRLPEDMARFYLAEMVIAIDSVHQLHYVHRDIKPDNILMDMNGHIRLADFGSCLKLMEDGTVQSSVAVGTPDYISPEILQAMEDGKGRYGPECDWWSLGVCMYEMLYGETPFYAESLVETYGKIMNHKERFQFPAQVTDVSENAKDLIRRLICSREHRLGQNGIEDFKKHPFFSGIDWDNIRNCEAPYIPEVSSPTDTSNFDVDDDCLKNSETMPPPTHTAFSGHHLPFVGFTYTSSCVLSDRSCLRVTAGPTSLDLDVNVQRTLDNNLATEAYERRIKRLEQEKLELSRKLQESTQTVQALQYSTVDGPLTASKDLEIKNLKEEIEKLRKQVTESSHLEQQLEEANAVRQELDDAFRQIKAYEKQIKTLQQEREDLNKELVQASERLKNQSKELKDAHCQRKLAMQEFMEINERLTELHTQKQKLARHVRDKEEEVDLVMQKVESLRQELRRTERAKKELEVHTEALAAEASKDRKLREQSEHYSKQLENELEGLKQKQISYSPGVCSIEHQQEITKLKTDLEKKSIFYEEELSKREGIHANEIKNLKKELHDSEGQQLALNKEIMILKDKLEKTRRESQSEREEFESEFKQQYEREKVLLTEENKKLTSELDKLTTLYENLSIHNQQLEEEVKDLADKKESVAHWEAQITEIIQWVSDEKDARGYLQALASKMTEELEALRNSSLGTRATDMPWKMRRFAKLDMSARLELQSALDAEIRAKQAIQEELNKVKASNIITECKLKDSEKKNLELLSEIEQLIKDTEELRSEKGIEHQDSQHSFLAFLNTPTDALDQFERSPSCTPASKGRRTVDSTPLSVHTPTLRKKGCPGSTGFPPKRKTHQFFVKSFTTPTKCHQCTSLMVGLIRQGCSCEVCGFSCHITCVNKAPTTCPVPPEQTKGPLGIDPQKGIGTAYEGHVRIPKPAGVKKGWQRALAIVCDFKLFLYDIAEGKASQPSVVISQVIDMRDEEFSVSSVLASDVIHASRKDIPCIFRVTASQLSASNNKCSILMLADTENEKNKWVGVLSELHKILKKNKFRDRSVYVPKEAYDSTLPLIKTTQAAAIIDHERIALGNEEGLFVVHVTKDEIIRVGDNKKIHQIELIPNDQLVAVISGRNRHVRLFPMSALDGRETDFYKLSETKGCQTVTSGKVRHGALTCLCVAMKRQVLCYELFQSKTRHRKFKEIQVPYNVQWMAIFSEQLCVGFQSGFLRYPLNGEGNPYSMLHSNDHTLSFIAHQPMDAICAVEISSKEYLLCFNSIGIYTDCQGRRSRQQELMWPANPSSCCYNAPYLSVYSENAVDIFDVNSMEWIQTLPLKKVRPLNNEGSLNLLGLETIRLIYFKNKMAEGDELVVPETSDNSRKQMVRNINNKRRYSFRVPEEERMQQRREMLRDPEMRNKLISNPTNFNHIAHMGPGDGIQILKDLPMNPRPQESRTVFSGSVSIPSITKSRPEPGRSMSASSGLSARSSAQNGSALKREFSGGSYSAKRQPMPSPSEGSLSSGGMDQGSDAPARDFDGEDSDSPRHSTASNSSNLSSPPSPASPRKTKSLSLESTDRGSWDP
Sequence of RAC-beta serine/threonine-protein kinase (Homo sapiens) (P31751 whole entry): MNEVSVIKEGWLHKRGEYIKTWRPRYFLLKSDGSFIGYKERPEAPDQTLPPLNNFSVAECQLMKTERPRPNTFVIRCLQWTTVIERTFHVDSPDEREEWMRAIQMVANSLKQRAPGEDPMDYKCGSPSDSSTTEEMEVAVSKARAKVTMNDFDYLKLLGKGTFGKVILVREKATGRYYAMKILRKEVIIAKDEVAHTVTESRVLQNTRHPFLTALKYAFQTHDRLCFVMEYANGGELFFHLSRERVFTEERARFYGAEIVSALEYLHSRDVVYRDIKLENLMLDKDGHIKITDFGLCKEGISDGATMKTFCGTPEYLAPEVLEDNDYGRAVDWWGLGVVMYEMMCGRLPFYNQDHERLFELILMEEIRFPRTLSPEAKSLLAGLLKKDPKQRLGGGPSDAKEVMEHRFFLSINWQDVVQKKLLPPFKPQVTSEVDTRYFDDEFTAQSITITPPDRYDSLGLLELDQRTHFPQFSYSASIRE
Sequence of Growth hormone secretagogue receptor type 1 (Homo sapiens) (Q92847 whole entry): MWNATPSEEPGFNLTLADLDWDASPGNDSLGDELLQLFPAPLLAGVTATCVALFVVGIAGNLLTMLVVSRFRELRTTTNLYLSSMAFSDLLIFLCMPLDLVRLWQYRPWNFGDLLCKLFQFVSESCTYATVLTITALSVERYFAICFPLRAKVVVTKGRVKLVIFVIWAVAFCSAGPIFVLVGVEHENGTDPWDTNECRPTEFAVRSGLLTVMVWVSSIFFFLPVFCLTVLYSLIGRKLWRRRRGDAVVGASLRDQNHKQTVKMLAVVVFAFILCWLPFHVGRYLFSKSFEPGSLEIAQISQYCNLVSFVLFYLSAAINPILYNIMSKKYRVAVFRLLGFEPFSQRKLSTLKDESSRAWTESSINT
Sequence of SRSF protein kinase 2 (Homo sapiens) (P78362 whole entry, looked up): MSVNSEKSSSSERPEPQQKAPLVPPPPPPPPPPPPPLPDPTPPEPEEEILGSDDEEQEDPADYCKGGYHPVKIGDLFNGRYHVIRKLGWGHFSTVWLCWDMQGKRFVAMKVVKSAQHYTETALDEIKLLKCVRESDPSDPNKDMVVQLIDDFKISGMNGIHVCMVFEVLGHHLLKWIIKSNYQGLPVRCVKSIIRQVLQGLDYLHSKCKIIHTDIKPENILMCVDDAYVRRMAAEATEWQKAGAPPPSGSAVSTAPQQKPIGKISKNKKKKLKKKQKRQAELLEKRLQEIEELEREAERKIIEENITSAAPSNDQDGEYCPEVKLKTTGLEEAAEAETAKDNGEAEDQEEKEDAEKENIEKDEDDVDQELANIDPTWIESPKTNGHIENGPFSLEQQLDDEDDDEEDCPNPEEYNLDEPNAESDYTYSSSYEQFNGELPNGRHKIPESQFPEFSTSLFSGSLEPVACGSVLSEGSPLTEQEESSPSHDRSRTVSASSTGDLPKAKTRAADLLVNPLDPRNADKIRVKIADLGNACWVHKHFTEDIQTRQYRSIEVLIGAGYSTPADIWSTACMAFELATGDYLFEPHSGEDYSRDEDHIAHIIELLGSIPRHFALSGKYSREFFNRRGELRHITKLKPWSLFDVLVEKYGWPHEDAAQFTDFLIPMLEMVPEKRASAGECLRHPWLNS
Sequence of Serine/threonine-protein kinase 24 (Homo sapiens) (Q9Y6E0 whole entry, looked up): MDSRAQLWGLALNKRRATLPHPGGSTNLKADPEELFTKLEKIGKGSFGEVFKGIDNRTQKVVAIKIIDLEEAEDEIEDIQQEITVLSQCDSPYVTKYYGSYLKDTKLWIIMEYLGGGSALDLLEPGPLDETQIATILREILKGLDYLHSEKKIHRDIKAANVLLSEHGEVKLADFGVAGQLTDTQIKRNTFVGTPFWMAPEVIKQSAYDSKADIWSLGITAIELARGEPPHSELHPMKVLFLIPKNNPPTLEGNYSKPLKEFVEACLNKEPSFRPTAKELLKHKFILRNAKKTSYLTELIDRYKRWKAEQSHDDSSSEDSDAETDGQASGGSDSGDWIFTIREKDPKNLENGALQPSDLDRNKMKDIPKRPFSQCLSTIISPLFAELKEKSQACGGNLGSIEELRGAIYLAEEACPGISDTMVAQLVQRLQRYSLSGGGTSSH
Sequence of 3-hydroxy-3-methylglutaryl-coenzyme A reductase (Homo sapiens) (P04035 whole entry): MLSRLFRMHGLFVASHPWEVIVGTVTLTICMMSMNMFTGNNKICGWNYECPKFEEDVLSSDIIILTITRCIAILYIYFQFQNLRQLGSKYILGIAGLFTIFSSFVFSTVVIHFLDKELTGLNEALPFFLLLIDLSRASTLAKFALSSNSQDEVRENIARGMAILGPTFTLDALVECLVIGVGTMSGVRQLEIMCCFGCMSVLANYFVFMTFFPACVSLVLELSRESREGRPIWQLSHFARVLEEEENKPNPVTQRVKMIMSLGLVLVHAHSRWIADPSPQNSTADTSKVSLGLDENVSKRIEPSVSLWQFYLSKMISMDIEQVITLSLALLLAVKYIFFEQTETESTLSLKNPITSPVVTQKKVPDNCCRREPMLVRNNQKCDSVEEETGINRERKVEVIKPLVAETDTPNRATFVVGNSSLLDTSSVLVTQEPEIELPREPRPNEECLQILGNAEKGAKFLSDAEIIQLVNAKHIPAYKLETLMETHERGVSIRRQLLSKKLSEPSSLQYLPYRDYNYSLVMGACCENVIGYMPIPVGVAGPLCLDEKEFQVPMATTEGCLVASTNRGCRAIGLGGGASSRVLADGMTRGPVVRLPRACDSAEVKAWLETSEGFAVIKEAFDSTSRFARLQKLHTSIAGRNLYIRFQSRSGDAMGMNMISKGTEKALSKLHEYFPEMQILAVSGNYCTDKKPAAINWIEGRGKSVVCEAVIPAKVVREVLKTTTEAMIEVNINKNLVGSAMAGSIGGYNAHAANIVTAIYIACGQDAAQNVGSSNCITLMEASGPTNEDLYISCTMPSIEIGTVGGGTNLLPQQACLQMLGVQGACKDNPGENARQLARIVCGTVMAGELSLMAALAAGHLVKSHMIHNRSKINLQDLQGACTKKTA

CC[C@@H](Nc1c(C#N)c(-c2ccc(-c3cccc(C)c3F)cc2)nc2cnccc12)C(=O)O [BAY-091]
inactive: [1] -7% | [2] 7.75% | [3] 8.17% | [4] 2.84% | [5] 18.8% | [6] 6.94% | [7] 4.22% | [8] 7.66% | [9] 9.2% | [10] 11.8% | [11] -0.05% | [12] 0.19% | [13] 4.32% | [14] 12% | [15] 2.72% | [16] 50.1% | [17] 12.8% | [18] 3.07% | [19] 18% | [20] -4.99% | [21] -3.96% | [22] 1.03% | [23] 6.61% | [24] 8.59% | [25] 3.52% | [26] -7.76% | [27] -8.83% | [28] 4.02% | [29] -8.51% | [30] 14.8% | [31] 9.64% | [32] 10.3% | D(1A) dopamine receptor [33] -3.98% | [34] 13.8% | [35] 2.8% | [36] 12.9% | [37] 5.7% | [38] 4.09% | [39] 13% | D(1A) dopamine receptor [40] 15% | [41] -2% | [42] 6%
